Results published in US9034865B2, “Pyrido [4,3-B] indole and pyrido [3,4-B] indole derivatives and methods of use” (Medivation Technologies, Inc., priority 2010, dated 2015).

What was measured:
[1] = molecular target: T1, human recombinant serotonin (5-Hydroxytryptamine) 5-HT7 receptor (Homo sapiens, UniProt P34969); experiment: Serotonin 5-HT7 radioligand binding ([3H]LSD); details: compound at 0.1 μM; read-out: Percentage inhibition of ligand binding, Serotonin (0.1 μM) 5-HT7
T1 construct: expressed in transfected cells; host or cells: CHO
T1 sequence (P34969 whole entry): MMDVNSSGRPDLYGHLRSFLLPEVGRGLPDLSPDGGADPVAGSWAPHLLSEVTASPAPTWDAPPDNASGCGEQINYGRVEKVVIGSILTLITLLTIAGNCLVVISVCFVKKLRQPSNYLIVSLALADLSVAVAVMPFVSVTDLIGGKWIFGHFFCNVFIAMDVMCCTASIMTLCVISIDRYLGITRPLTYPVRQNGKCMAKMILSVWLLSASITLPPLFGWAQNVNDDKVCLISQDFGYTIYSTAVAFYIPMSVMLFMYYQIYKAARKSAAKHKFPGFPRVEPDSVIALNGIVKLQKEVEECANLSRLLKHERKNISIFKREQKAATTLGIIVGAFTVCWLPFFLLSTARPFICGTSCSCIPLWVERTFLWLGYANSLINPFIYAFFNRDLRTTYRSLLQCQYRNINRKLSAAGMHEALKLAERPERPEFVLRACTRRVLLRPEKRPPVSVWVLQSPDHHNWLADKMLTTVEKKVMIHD
Description: To evaluate in radioligand binding assays the activity of compounds of the invention, human recombinant serotonin (5-Hydroxytryptamine) 5-HT7 receptor expressed in Chinese hamster ovary (CHO) cells (Roth, B. et al, J. Pharmacol. Exp. Ther. 268:1403, 1994; Shen, Y. et al, J. Biol. Chem. 268:18200, 1993) in a modified Tris-HCl buffer (50 mM Tris-HCl, pH 7.4, 10 mM MgCl2, 0.5 mM EDTA) was used. Compounds of invention were incubated with 5.5 nM [^3H] Lysergic acid diethylamide (LSD) for 2 h at 25° C. Non-specific binding was estimated in the presence of 10 μM Serotonin (5-HT). Receptor proteins were filtered and washed, the filters were then counted to determine [^3H]LSD specifically bound. Compounds were screened at 1 μM or lower, using 1% DMSO as vehicle. Biochemical assay results are presented as the percent inhibition of specific binding in Table 4.

[2] = molecular target: T2, human recombinant serotonin (5-Hydroxytryptamine) 5-HT2C receptor (Homo sapiens, UniProt P28335); experiment: Serotonin 5-HT2C radioligand binding ([3H]Mesulergine); details: compound at 0.1 μM; read-out: Percentage inhibition of ligand binding, Serotonin (0.1 μM) 5-HT2C
T2 construct: expressed in transfected cells; host or cells: CHO-K1
T2 sequence (P28335 33-458): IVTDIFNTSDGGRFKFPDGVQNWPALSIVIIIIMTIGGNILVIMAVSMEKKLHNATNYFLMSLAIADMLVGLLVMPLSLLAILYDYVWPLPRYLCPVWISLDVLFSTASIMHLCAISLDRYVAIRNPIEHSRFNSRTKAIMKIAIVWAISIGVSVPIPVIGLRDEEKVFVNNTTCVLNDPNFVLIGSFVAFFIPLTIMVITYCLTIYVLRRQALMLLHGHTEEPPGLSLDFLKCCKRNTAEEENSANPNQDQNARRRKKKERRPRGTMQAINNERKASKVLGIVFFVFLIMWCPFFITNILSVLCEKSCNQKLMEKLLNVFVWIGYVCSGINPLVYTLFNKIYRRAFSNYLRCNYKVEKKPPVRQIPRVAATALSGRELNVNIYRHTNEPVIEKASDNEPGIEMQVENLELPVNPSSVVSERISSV
Description: To evaluate in radioligand binding assays the activity of compounds of the invention, human recombinant serotonin (5-Hydroxytryptamine) 5-HT2C receptor expressed in Chinese hamster ovary (CHO) K1 cells (Wolf, W. et al, J. Neurochem. 69:1449, 1997) in a modified Tris-HCl buffer (50 mM Tris-HCl, pH 7.4, 0.1% Ascorbic Acid, 10 μM Pargyline) was used. Compounds of the invention were incubated with 1 nM [^3H]Mesulergine for 60 min at 25° C. Non-specific binding was estimated in the presence of 1 μM Mianserin. Receptor proteins were filtered and washed, the filters were then counted to determine [^3H]Mesulergine specifically bound. Compounds were screened at 1 μM or lower, using 1% DMSO as vehicle. Biochemical assay results are presented as the percent inhibition of specific binding in Table 4.

[3] = molecular target: T3, human recombinant histamine H1 receptor (Homo sapiens, UniProt P35367); experiment: Histamine H1 radioligand binding ([3H]Pyrilamine); details: compound at 1 μM; 1.2 nM [3H]Pyrilamine; read-out: Binding data (Percentage inhibition) Histamine H1 (1 μM)
T3 construct: expressed in transfected cells; host or cells: CHO-K1
T3 sequence (P35367 whole entry): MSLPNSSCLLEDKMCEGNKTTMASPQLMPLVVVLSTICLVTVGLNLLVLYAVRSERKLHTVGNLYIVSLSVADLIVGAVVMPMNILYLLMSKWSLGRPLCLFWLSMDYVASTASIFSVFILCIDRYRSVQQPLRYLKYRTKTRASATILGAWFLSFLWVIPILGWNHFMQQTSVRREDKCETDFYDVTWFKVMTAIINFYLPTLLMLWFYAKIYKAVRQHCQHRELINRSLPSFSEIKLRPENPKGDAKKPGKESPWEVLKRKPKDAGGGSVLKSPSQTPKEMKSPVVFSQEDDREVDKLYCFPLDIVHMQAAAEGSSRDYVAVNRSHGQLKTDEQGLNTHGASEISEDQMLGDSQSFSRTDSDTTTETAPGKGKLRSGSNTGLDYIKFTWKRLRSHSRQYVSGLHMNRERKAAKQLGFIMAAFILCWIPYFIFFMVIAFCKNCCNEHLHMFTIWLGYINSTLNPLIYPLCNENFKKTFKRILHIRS
Description: To evaluate in radioligand binding assays the activity of compounds of the invention, human recombinant histamine H1 receptor expressed in Chinese hamster ovary (CHO) K1 cells (De Backer, M. et al, Biochem. Biophys. Res. Comm. 197(3):1601, 1993) in a modified Tris-HCl buffer (50 mM Tris-HCl, pH 7.4, 2 mM MgCl2, 100 mM NaCl, 250 mM Sucrose) was used. Compounds of the invention were incubated with 1.2 nM [^3H]Pyrilamine for 180 min at 25° C. Non-specific binding was estimated in the presence of 1 μM Pyrilamine. Receptor proteins were filtered and washed, the filters were then counted to determine [^3H]Pyrilamine specifically bound. Compounds were screened at 1 μM or lower, using 1% DMSO as vehicle. Biochemical assay results are presented as the percent inhibition of specific binding in Table 2.

[4] = molecular target: T4, human recombinant serotonin (5-Hydroxytryptamine) 5-HT2A receptor (Homo sapiens, UniProt P28223); experiment: Serotonin 5-HT2A radioligand binding ([3H]Ketanserin); details: compound at 0.1 μM; read-out: Percentage inhibition of ligand binding, Serotonin (0.1 μM) 5-HT2A
T4 construct: expressed in transfected cells; host or cells: CHO-K1
T4 sequence (P28223 whole entry): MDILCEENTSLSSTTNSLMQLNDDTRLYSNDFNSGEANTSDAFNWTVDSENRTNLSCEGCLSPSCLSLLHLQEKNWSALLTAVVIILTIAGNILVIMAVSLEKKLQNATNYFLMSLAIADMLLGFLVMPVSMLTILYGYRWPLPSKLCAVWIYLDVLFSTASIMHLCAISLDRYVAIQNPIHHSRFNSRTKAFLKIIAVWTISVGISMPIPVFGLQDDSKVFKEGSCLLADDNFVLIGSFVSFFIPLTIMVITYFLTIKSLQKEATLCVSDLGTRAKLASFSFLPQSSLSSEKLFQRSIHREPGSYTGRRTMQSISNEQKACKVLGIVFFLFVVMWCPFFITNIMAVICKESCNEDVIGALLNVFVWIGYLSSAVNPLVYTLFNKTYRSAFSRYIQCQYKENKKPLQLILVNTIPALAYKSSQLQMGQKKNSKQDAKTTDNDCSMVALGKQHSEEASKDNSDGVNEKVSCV
Description: To evaluate in radioligand binding assays the activity of compounds of the invention, human recombinant serotonin (5-Hydroxytryptamine) 5-HT2A receptor expressed in Chinese hamster ovary (CHO) K1 cells (Bonhaus, D. et al, Br. J. Pharmacol. 115:622, 1995; Saucier, C. et al, J. Neurochem. 68:1998, 1997) in a 50 mM Tris-HCl buffer, pH 7.4, was used. Compounds of the invention were incubated with 0.5 nM [^3H]Ketanserin for 60 min at 25° C. Non-specific binding was estimated in the presence of 1 μM Mianserin. Receptor proteins were filtered and washed, the filters were then counted to determine [^3H]Ketanserin specifically bound. Compounds were screened at 1 μM or lower, using 1% DMSO as vehicle. Biochemical assay results are presented as the percent inhibition of specific binding in Table 4.

[5] = molecular target: T5, human recombinant serotonin (5-Hydroxytryptamine) 5-HT6 receptor (Homo sapiens, UniProt P50406); experiment: Serotonin 5-HT6 radioligand binding ([3H]LSD); details: compound at 0.1 μM; read-out: Percentage inhibition of ligand binding, Serotonin (0.1 μM) 5-HT6
T5 construct: expressed in transfected cells; host or cells: HeLa
T5 sequence (P50406 whole entry): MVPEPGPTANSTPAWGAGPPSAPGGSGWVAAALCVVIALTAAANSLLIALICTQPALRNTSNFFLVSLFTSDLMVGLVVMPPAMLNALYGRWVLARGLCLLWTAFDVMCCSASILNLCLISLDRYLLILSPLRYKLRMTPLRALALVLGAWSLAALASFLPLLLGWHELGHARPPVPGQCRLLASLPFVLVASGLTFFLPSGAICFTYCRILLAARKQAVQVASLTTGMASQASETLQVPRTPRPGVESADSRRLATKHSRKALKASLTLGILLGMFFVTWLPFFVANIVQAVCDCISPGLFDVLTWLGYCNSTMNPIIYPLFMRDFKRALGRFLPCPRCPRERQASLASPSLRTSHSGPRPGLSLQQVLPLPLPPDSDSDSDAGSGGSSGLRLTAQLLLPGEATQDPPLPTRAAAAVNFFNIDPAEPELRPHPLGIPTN
Description: To evaluate in radioligand binding assays the activity of compounds of the invention, human recombinant serotonin (5-Hydroxytryptamine) 5-HT6 receptor expressed in human HeLa cells (Monsma, F. Jr. et al, Mol. Pharmacol. 43:320, 1993) in a modified Tris-HCl buffer (50 mM Tris-HCl, pH 7.4, 150 mM NaCl, 2 mM Ascorbic Acid, 0.001% BSA) was used. Compounds of the invention were incubated with 1.5 nM [3H]Lysergic acid diethylamide (LSD) for 120 min at 37° C. Non-specific binding was estimated in the presence of 5 μM Serotonin (5-HT). Receptor proteins were filtered and washed, the filters were then counted to determine [3H]LSD specifically bound. Compounds were screened at 1 μM or lower, using 1% DMSO as vehicle. Biochemical assay results are presented as the percent inhibition of specific binding in Table 4.

[6] = molecular target: T6, human recombinant dopamine D2L receptor (Homo sapiens, UniProt P14416); experiment: Dopamine D2L radioligand binding ([3H]Spiperone); details: compound at 1 μM; read-out: Percentage inhibition of ligand binding, Dopamine (1 μM) D2L
T6 construct: expressed in transfected cells; host or cells: CHO
T6 sequence (P14416 whole entry): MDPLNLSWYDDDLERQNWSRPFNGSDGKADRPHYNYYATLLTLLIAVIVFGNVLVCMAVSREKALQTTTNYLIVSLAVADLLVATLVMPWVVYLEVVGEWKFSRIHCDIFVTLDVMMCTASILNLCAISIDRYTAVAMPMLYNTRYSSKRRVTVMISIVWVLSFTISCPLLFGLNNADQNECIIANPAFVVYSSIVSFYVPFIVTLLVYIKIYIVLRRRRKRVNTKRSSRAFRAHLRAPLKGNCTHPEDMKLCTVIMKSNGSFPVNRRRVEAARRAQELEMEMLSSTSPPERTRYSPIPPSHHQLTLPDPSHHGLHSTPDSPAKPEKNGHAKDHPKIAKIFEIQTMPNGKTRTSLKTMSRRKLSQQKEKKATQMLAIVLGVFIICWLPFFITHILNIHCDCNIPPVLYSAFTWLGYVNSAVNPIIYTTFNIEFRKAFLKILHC
Description: To evaluate in radioligand binding assays the activity of compounds of the invention, human recombinant dopamine D2L receptor expressed in Chinese hamster ovary (CHO) cells (Grandy, D. et al, Proc. Natl. Acad. Sci. USA. 86:9762, 1989; Hayes, G. et al, Mol. Endocrinol. 6:920, 1992) in a modified Tris-HCl buffer (50 mM Tris-HCl, pH 7.4, 1.4 mM Ascorbic Acid, 0.001% BSA, 150 mM NaCl) was used. Compounds of the invention were incubated with 0.16 nM [^3H]Spiperonefor 120 min at 25° C. Non-specific binding was estimated in the presence of 10 μM Haloperidol. Receptor proteins were filtered and washed, the filters were then counted to determine [^3H]Spiperone specifically bound. Compounds were screened at 1 μM or lower, using 1% DMSO as vehicle. Biochemical assay results are presented as the percent inhibition of specific binding in Table 3.

Cc1cc(C#Cc2ccc(C)nc2)c2[nH]c3c(c2c1)CN(C)CC3 [Compound 6, 2,8-dimethyl-6-((6-methylpyridin-3-yl)ethynyl)-2,3,4,5-tetrahydro-1H-pyrido[4,3-b]indole]
inhibition at 0.1 µM [1]: 43% | inhibition at 0.1 µM [2]: 55% | inhibition at 1 µM [3]: 16% | inhibition at 0.1 µM [4]: 41% | inhibition at 0.1 µM [5]: 24% | inhibition at 1 µM [6]: 7%

Cc1cc(C#Cc2ccncc2)c2[nH]c3c(c2c1)CN(C)CC3 [Compound 5]
inhibition at 0.1 µM [1]: 45% | inhibition at 0.1 µM [2]: 45% | inhibition at 1 µM [3]: 17% | inhibition at 0.1 µM [4]: 54% | inhibition at 0.1 µM [5]: 30% | inhibition at 1 µM [6]: 10%

CN1CCc2[nH]c3c(NCc4ccncc4)cccc3c2C1 [Compound 4]
inhibition at 0.1 µM [1]: -10% | inhibition at 0.1 µM [2]: 7% | inhibition at 1 µM [3]: 15% | inhibition at 0.1 µM [4]: -7% | inhibition at 0.1 µM [5]: 2% | inhibition at 1 µM [6]: 5%

Cc1cc(CCc2ccc(C)nc2)c2[nH]c3c(c2c1)CN(C)CC3 [Compound 2]
inhibition at 0.1 µM [1]: 17% | inhibition at 0.1 µM [2]: 36% | inhibition at 1 µM [3]: 58% | inhibition at 0.1 µM [4]: 6% | inhibition at 0.1 µM [5]: 4% | inhibition at 1 µM [6]: 6%

CN1CCc2[nH]c3c(NCc4ccccc4)cccc3c2C1 [Compound 3]
inhibition at 0.1 µM [1]: 14% | inhibition at 0.1 µM [2]: 41% | inhibition at 1 µM [3]: 14% | inhibition at 0.1 µM [4]: 40% | inhibition at 0.1 µM [5]: 13% | inhibition at 1 µM [6]: 19%

CN1CCc2[nH]c3c(N(C)Cc4ccccc4)cccc3c2C1 [Compound 1, benzyl-methyl-(2-methyl-2,3,4,5-tetrahydro-1H-pyrido[4,3-b]indol-6-yl)-amine]
inhibition at 0.1 µM [1]: 9% | inhibition at 0.1 µM [2]: 55% | inhibition at 1 µM [3]: 6% | inhibition at 0.1 µM [4]: 73% | inhibition at 0.1 µM [5]: 44% | inhibition at 1 µM [6]: 21%
